Source: patent US7626075B2, “Growth of foreign cells in fetal animals facilitated by conditional and selective destruction of native host cells” (priority 2002, dated 2009)
Where two headings read alike, the source gives them in different places.

Key:
[1] = system: pancreatic islets; details: injected into fetal animals; cited from earlier work
[2] = system: pancreatic islets; details: injected into fetal animals; cited from earlier work; remark: listed apart in the source
[3] = system: Huh-7 cells stably transfected with AlbxTK; test: Gancyclovir sensitivity of Huh-7 cells transfected with AlbxTK, propidium iodine FACS; type: cell-based, human
Experimental: Mouse and human liver cell lines were transfected with constructs containing delta thymidine kinase under the control of either a porcine albumin or α-fetoprotein (AFP) promoter. The mouse cell line (TIB73) is a line of mature hepatocytes in which albumin is expressed. The human cell line (Huh-7) is a line of hepatocellular carcinoma cells that express predominantly AFP. The transfected cells were tested for thymidine kinase by Western blot. To assess the function of mutated thymidine kinase, Huh-7 cells were stably transfected with AlbxTK. Transfected cells were selected using 200 μg/ml Zeocin. Transfected cells as well as untransfected cells were plated in duplicate in 24-well plates at a 40 percent confluence ratio. Gancyclovir was added to the cells in the culture media at different concentrations (4 μM, 8 μM, and 16 μM. […]

[4] = system: untransfected Huh-7 cells; test: Gancyclovir effect on untransfected cells, propidium iodine FACS; type: cell-based, human; details: gancyclovir 4, 8, 16 μM in culture media
Experimental: To assess the function of mutated thymidine kinase, Huh-7 cells were stably transfected with AlbxTK. Transfected cells were selected using 200 μg/ml Zeocin. Transfected cells as well as untransfected cells were plated in duplicate in 24-well plates at a 40 percent confluence ratio. Gancyclovir was added to the cells in the culture media at different concentrations (4 μM, 8 μM, and 16 μM. After 5 days, the cells were trypsinized, washed twice in PBS, and stained with propidium iodine for FACS analysis.

[5] = system: fetal mice heterozygous for thymidine kinase under the albumin promoter; details: for fetal hepatocyte injury (histology): 14 days gestation
From the text: The suicide gene product preferably is expressed in the appropriate tissue of the fetal host mammal at a level sufficient to be sensitive to a prodrug. The optimal dose of a prodrug depends on the prodrug, the particular suicide gene, the level of suicide gene expression in the target cells, zygosity of the fetal mammal, route of administration, and placental transport. Optimal doses can readily be determined by administering increasing doses of the prodrug to the pregnant mammal, assessing the effect on the target cells using standard pathology methods and assessing the effect on fetal survival using ultrasound and pathology techniques. The optimal dose would produce significant cell injury (>20%) with a minimum of fetal deaths (<15%).
Transgenic mice were produced with the FVB strain containing the mutated thymidine kinase transgene under the albumin promoter. […] These males were bred with non-transgenic FVB mice. At 14 days gestation, gancyclovir (0 to 100 mg/kg body weight) was injected intravenously into the pregnant mice. Tissues from the mothers and fetuses were analyzed by histology.

[6] = system: non-transgenic FVB mice (mothers); test: Gancyclovir i.v. to pregnant non-transgenic mice, histology of the mothers; type: in vivo, mouse; details: any dose (0 to 100 mg/kg i.v.)
From the text: These males were bred with non-transgenic FVB mice.

[7] = system: fetal pig liver; test: Engraftment of human hepatocytes in fetal pigs after gancyclovir to the sow and human cord blood cell infusion; type: in vivo; details: gancyclovir 100 mg/kg i.v. to sow
Experimental: A non-transgenic sow is bred with a boar that is hemizygous for a mutated thymidine kinase transgene under the control of an albumin promoter. Pregnancy is confirmed with ultrasound and gancyclovir (100 mg/kg, i.v.) is administered at 40 days gestation. A laparotomy is performed at 45 days. Each pig is infused with 10×10^6 human cord blood cells. The piglets are delivered at term by Caesarean section. Blood is drawn from each fetal pig and analyzed for the presence of the suicide transgene using PCR. Serum is tested for the presence of human liver proteins, including albumin, α1-antitrypsin, and serum amyloid A. Sections of liver are frozen and stained for human albumin.

[8] = system: mice expressing thymidine kinase under the albumin promoter; test: Engraftment of human hepatocytes in transgenic mice given gancyclovir after birth; type: in vivo, mouse; details: 50 mg/kg on days 1 and 3 at 14 days of age; sacrificed thirty days later
Experimental: Transgenic mice are produced that express the thymidine kinase gene under the albumin promoter. The male mice are bred with wild type females. Human hepatocytes (2×10^6 per fetal mouse) are injected at 17 days gestation, just prior to delivery. At 14 days of age, the mice are injected with gancyclovir (50 mg/kg) on days 1 and 3 or with the vehicle. Thirty days later, the mice are sacrificed.

[9] = system: hepatocytes of adult transgenic mice; details: administered to adult transgenic mice; cited from earlier work

Row | SMILES | effect on fetal pancreatic islets [1] | effect on maternal islets [1] | effect on fetal pancreatic islets [2] | effect on maternal islets [2] | cell death ([3]; 8 or 16 μM gancyclovir, 5 days) | cell killing ([3]; 7 days) | effect on non-transfected cells [4] | fetal survival ([5]; 25 mg/kg intravenous injection to pregnant mouse) | fetal survival ([5]; 50 mg/kg and higher, to pregnant mouse) | fetal hepatocyte injury (histology) ([5]; 50 mg/kg i.v. to pregnant mouse) | fetal hepatocyte injury (histology) ([5]; 100 mg/kg i.v. to pregnant mouse) | injury to the non-liver tissues in the fetal mice ([5]; mouse, in vivo) | placental transfer ([5]; mouse, in vivo, iv) | injury to the hepatocytes of the mother [6] | levels of human albumin, α1-antitrypsin inhibitor and serum amyloid A ([7]; piglets without thymidine kinase transgene) | liver engrafted with human hepatocytes ([7]; pigs with thymidine kinase suicide gene, average) | liver engrafted with human hepatocytes ([7]; pigs without suicide transgene) | engraftment with human hepatocytes versus controls not treated [8] | hepatocyte death [9]
1 | CN(N=O)C(=O)N[C@H]1C(O)O[C@H](CO)[C@@H](O)[C@@H]1O (mixture of isomers) [streptozotocin] | destroys the pancreatic islets | relatively little effect | destroys the pancreatic islets | relatively little effect |  |  |  |  |  |  |  |  |  |  |  |  |  |  | 
2 | Nc1nc(O)c2ncn(COC(CO)CO)c2n1 [gancyclovir] |  |  |  |  | significantly more cell death | entirely killed | only a minimal effect | the fetal pups survived | the fetal mice died | massive hepatic necrosis | massive hepatic necrosis | no observable injury | crosses the placental barrier | no observable injury | less than 1 % of levels seen in humans | 25 % of the total liver | less than 2 % of the total liver | substantially greater engraftment | Most of the hepatocytes then died off
